In patent US20170252278A1, “INHIBITION OF MATURATION OF DENTAL BIOFILM AND CARIOGENIC PROPERTIES” (KONINKLIJKE PHILIPS N.V., priority 2014, published 2017):

Legend:
Type in all cases: cell-based
[1] = tested on: in vitro oral plaque biofilms; experiment: In vitro oral plaque biofilm formation in the Amsterdam Active Attachment Model, CFU determination; conditions: for effect on in vitro oral plaque biofilm formation: 10 μM, difference less than one log, not considered biologically relevant
Protocol: Stimulated saliva, used as inoculum, was collected on ice from ten donors. Saliva was donated 24 h after last brushing. The saliva was diluted 2-fold with 60% sterile glycerol, aliquoted and stored at −80° C. Before use, a pooled sample was prepared by mixing 200 μl of thawed saliva of each donor and vortexing for 30 seconds. In vitro oral plaque biofilms were inoculated 1:50 with pooled saliva.
In vitro oral plaque biofilms were grown in the Amsterdam Active Attachment Model (AAA-model, Exterkate et al. (2010)), assembled with glass coverslips (diameter 12 mm; Menzel, Braunschweig, Germany). The model was inoculated for 8 h with pooled saliva in buffered semi-defined McBain medium (2.5 g/l mucin (Sigma, St Louis, Mo.), 2.0 g/l Bacto peptone (Difco, Detroit, Mich.), 2.0 g/l Trypticase peptone (BBL, Cockeysville, Md.), 1.0 g/l yeast extract (BD Diagnostic Systems, Sparks, Md.), 0.35 g/l NaCl, 0.2 g/l KCl, 0.2 g/l CaCl2, 1 mg/l hemin (Sigma, St. Louis, Mo., USA), and 2 mg/l vitamin K1 (McBain et al. (2005)), with 50 mmol/1 PIPES at pH 7.0), with 0.2% sucrose.
In vitro oral plaque biofilms were grown in the AAA-model for 48-96 h in the presence of the compounds tested. The model was inoculated with saliva and incubated anaerobically at 37° C. for 8 hours to allow microbes to attach to the glass coverslips. After 8 hours of attachment, the inoculation medium was refreshed and in vitro oral plaque biofilms were grown for 16 hours. This refreshment routine was repeated daily until the day of harvesting.
In vitro oral plaque biofilms were harvested by transferring the glass coverslips into 2 ml phosphate buffered saline (PBS). The biofilms were dispersed using a Vibracell VCX130 sonicator with a maximum of 130 Watts and 20 kHz (Sonics & Materials, Newtown, USA). Bio films were sonicated on ice for 1 minute with a pulse rate of 50% and pulses of 1 second. Vibration amplitude was set to 40%.
To estimate the amount of in vitro oral plaque biofilm formation, total anaerobic colony forming units were determined. Briefly, serial dilutions of the dispersed bio films were made and plated on tryptic soy agar blood plates. Plates were subsequently incubated anaerobically for 96 h at 37° C. and colony forming units were determined by counting the number of colonies for each dilution.

[2] = tested on: in vitro oral plaque biofilms; experiment: Lactic acid production assay of in vitro oral plaque biofilms; conditions: for reduction of lactate production / lactic acid production after 96 h of growth: 10 μM; for total lactic acid production per biofilm (FIG. 2): 100 μM, biofilms grown 48 h, 3 h in BPW with 0.2% sucrose
Protocol: All compounds tested of Table 1 were obtained from Sigma Aldrich. All compounds of Table 2, except 3-oxo-N(2oxocyclohexyl)dodecanamide, were kindly provided by M. Meijler, University of the Negev, Israel. The compounds were dissolved in DMSO and stored at −20 C. The compounds were continuously present at the indicated concentrations during biofilm growth, but not during further phenotypic analysis, i.e. lactate production.
To estimate the cariogenic phenotype, lactic acid production of the in vitro oral plaque biofilms was determined prior to harvesting (Exerkate et al 2010). In short, the biofilms on coverslips were placed in a 24-well plate containing 1.5 ml of BPW with 0.2% sucrose. Lactic acid formation was allowed for 3 hr at 37° C. under anaerobic conditions. The total amount of lactic acid produced in this period was analyzed using a colorimetric assay described previously (van Loveren et al. (2000)) and expressed as mM lactic acid, and as μM lactic acid per 1×10^6 CFU.
Biofilms were grown for 48 h in buffered McBain medium supplemented with 0.2% sucrose in the presence of 100 μM of one of the compounds. Medium was refreshed twice every day. […]

[3] = tested on: in vitro oral plaque biofilms; experiment: Microbial composition of biofilms by 16S rDNA sequencing; conditions: for shift in composition (Streptococcus down, Veillonella and Actinobacillus up) versus control: 10 μM; for Actinobacillus, share of biofilm composition / Actinomyces, share of biofilm composition / Campylobacter, share of biofilm composition / Fusobacterium, share of biofilm composition / Granulicatella, share of biofilm composition / Haemophilus, share of biofilm composition / Megasphaera, share of biofilm composition / Neisseria, share of biofilm composition / Other taxa, share of biofilm composition / Porphyromonas, share of biofilm composition / Prevotella, share of biofilm composition / Rothia, share of biofilm composition / Solobacterium, share of biofilm composition / Streptococcus, share of biofilm composition / Unclass. Pasteurellaceae, share of biofilm composition / Veillonella, share of biofilm composition: 3-Oxo-N 100 μM, furanones 10 μM
Protocol: DNA was isolated using phenol bead-beating followed by Agowa isolation, following the manufacturers instructions (LGC Genomics, Mag mini kit). Briefly, cells were mechanically disrupted four times at 1200 rpm for two minutes in addition of Tris-saturated Phenol, pH8, 0.1 mm zirconium beads and Mag lysis buffer. The DNA-containing phase was mixed with binding buffer and magnetic beads. DNA concentration was estimated by determining the absorbance at 260 nm using the nanodrop (Isogen, ND-1000).
PCR was performed in a final volume of 25 μl containing 1 μl of each primer ([…]), 1 μl dNTP (10 mM), 2.5 μl 10× DreamTaq Buffer including MgCl2 (Thermo Scientific), 0.2 μl DreamTaq DNA Polymerase (5 u/μ1, Thermo Scientific) and 50 ng of DNA. Initial denaturation was performed at 94° C. for 4 min, followed by 35 cycles of denaturation at 94° C. for 30 s, 54° C. annealing for 1 min, 72° C. for 1 min primer extension and a final extension at 72° C. for 5 min. Product formation was confirmed by electrophoresis of 5 μl on a 1% (w/v) agarose gel (Sphearo Q, Leiden, The Netherlands) stained with ethidium bromide.
These samples were analyzed by 16S rDNA Illumina sequencing at TNO Zeist (Netherlands).
Table 3. Microbial composition of biofilms grown for 48 (Table 3A) or 96 h (Table 3B) in the presence of different QS inhibitors. Composition was determined by 16S rDNA sequencing. The composition of the original inoculum used for all biofilms was also determined. “Unclass.” means: unclassified.

In the case of `O=C1OCC(Br)=C1Br` [3,4-Di-bromo, 3,4-Dibromo-2(5H)-furanone], the “effect on in vitro oral plaque biofilm formation” value [1] is reported as “slightly effect”, the “reduction of lactate production” value [2] is reported as “not observed” and the “lactic acid production after 96 h of growth” value [2] is reported as “up-regulate”. The “shift in composition (Streptococcus down, Veillonella and Actinobacillus up) versus control” value ([3]; 48 h) was “absent or even inversed”, the “Actinobacillus, share of biofilm composition” value (shortened to “Actinobacillus, share”) ([3]; 48 h) was 3.7% and the “Actinomyces, share of biofilm composition” value (“Actinomyces, share” for short) ([3]; 48 h) was 0.0%. For the same compound, the “Campylobacter, share of biofilm composition” value (“Campylobacter, share” for short) ([3]; 48 h) was 0.2%, the “Fusobacterium, share of biofilm composition” value (shortened to “Fusobacterium, share”) ([3]; 48 h) was 0.0% and the “Granulicatella, share of biofilm composition” value (“Granulicatella, share” below) ([3]; 48 h) was 0.1%. For the same compound, the “Haemophilus, share of biofilm composition” value (shortened to “Haemophilus, share”) ([3]; 48 h) was 0.0%, the “Megasphaera, share of biofilm composition” value (from here on “Megasphaera, share”) ([3]; 48 h) was 0.0% and the “Neisseria, share of biofilm composition” value ([3]; 48 h) was 0.0%. For the same compound, the “Other taxa, share of biofilm composition” value ([3]; 48 h) was 0.1%, the “Porphyromonas, share of biofilm composition” value (“Porphyromonas, share” for short) ([3]; 48 h) was 0.0% and the “Prevotella, share of biofilm composition” value ([3]; 48 h) was 0.0%. The “Rothia, share of biofilm composition” value ([3]; 48 h) was 0.0%, the “Solobacterium, share of biofilm composition” value (shortened to “Solobacterium, share”) ([3]; 48 h) was 0.1% and the “Streptococcus, share of biofilm composition” value (“Streptococcus, share” below) ([3]; 48 h) was 60.8%. For the same compound, the “Unclass. Pasteurellaceae, share of biofilm composition” value (from here on “Unclass. Pasteurellaceae, share”) ([3]; 48 h) was 0.2%, the “Veillonella, share of biofilm composition” value (from here on “Veillonella, share”) ([3]; 48 h) was 34.8% and the “Actinobacillus, share” value ([3]; 96 h) was 3.4%. For the same compound, the “Actinomyces, share” value ([3]; 96 h) was 0.1%, the “Campylobacter, share” value ([3]; 96 h) was 1.6% and the “Fusobacterium, share” value ([3]; 96 h) was 0.0%. For the same compound, the “Granulicatella, share” value ([3]; 96 h) was 0.2%, the “Haemophilus, share” value ([3]; 96 h) was 0.0% and the “Megasphaera, share” value ([3]; 96 h) was 0.0%. The “Neisseria, share of biofilm composition” value ([3]; 96 h) was 0.0%, the “Other taxa, share of biofilm composition” value ([3]; 96 h) was 0.7% and the “Porphyromonas, share” value ([3]; 96 h) was 0.0%. For the same compound, the “Prevotella, share of biofilm composition” value ([3]; 96 h) was 2.3%, the “Rothia, share of biofilm composition” value ([3]; 96 h) was 0.0% and the “Solobacterium, share” value ([3]; 96 h) was 0.7%. The “Streptococcus, share” value ([3]; 96 h) was 38.0%, the “Unclass. Pasteurellaceae, share” value ([3]; 96 h) was 0.0% and the “Veillonella, share” value ([3]; 96 h) was 52.9%.

With `CCCCCCCCCCCC(=O)N[C@H]1CCOC1=O` [C12-HSL, N-[(3S)-tetrahydro-2-oxo-3-furanyl]-dodecanamide] the “total lactic acid production per biofilm (FIG. 2)” value [2] was “no effect”.

In the case of `O=C1C=C(Br)/C(=C/Br)O1` [Furanone C30, (Z-)-4-Bromo-5-(bromomethylene)-2(5H)-furanone], the “effect on in vitro oral plaque biofilm formation” value [1] is reported as “slightly effect”, the “reduction of lactate production” value [2] is reported as “not observed” and the “lactic acid production after 96 h of growth” value [2] is reported as “up-regulate”. For the same compound, the “shift in composition (Streptococcus down, Veillonella and Actinobacillus up) versus control” value ([3]; 48 h) was “absent or even inversed”, the “Actinobacillus, share” value ([3]; 48 h) was 4.9% and the “Actinomyces, share” value ([3]; 48 h) was 0.1%. The “Campylobacter, share” value ([3]; 48 h) was 0.0%, the “Fusobacterium, share” value ([3]; 48 h) was 0.0% and the “Granulicatella, share” value ([3]; 48 h) was 0.0%. The “Haemophilus, share” value ([3]; 48 h) was 0.0%, the “Megasphaera, share” value ([3]; 48 h) was 0.0% and the “Neisseria, share of biofilm composition” value ([3]; 48 h) was 0.0%. For the same compound, the “Other taxa, share of biofilm composition” value ([3]; 48 h) was 0.0%, the “Porphyromonas, share” value ([3]; 48 h) was 0.0% and the “Prevotella, share of biofilm composition” value ([3]; 48 h) was 0.0%. For the same compound, the “Rothia, share of biofilm composition” value ([3]; 48 h) was 0.0%, the “Solobacterium, share” value ([3]; 48 h) was 0.1% and the “Streptococcus, share” value ([3]; 48 h) was 66.2%. The “Unclass. Pasteurellaceae, share” value ([3]; 48 h) was 0.0%, the “Veillonella, share” value ([3]; 48 h) was 28.6% and the “Actinobacillus, share” value ([3]; 96 h) was 4.5%. For the same compound, the “Actinomyces, share” value ([3]; 96 h) was 0.3%, the “Campylobacter, share” value ([3]; 96 h) was 0.0% and the “Fusobacterium, share” value ([3]; 96 h) was 0.0%. The “Granulicatella, share” value ([3]; 96 h) was 0.3%, the “Haemophilus, share” value ([3]; 96 h) was 0.0% and the “Megasphaera, share” value ([3]; 96 h) was 0.0%. For the same compound, the “Neisseria, share of biofilm composition” value ([3]; 96 h) was 0.0%, the “Other taxa, share of biofilm composition” value ([3]; 96 h) was 0.1% and the “Porphyromonas, share” value ([3]; 96 h) was 0.0%. The “Prevotella, share of biofilm composition” value ([3]; 96 h) was 0.0%, the “Rothia, share of biofilm composition” value ([3]; 96 h) was 0.0% and the “Solobacterium, share” value ([3]; 96 h) was 0.8%. The “Streptococcus, share” value ([3]; 96 h) was 34.4%, the “Unclass. Pasteurellaceae, share” value ([3]; 96 h) was 0.0% and the “Veillonella, share” value ([3]; 96 h) was 59.6%.

With `CCCCCCCCCCCCCC(=O)N[C@H]1CCOC1=O` [HSL-C14] the “biofilm production (visible amount of biofilm)” value ([1]; Example 2, 100 μM, 48 h) was “toxic to the formation of biofilm” and the “total lactic acid production per biofilm (FIG. 2)” value [2] was “reduced lactic acid production”.
